# Measurements from US8940742B2, “Heterocyclic compounds and uses thereof” (Infinity Pharmaceuticals, Inc., priority 2012, dated 2015).
# Target: T1, PI3K α (Homo sapiens, UniProt P42336)
# T1 construct: purchased Millipore
# Assay: PI3-Kinase Promega ADP-Glo Max assay
# Format: biochemical
# Conditions: 20 nM kinase, 3 mM ATP, 500 uM diC8-PtdInsP
# Protocol: (§1) Promega ADP-Glo Max assay kit (Cat. No. V7002) was utilized to determine IC50 values for α, β, δ and γ isoforms of human Class I PI3 kinases (Millipore). Samples of kinase (20 nM α or δ, 40 nM β or γ isoform) were incubated with compound for 15 minutes at room temperature in reaction buffer (15 mM HEPES pH 7.4, 20 mM NaCl, 1 mM EGTA, 0.02% Tween 20, 10 mM MgCl2, 0.2 mg/mL bovine-γ-globulins) followed by addition of ATP/diC8-PtdInsP mixture to give final concentrations of 3 mM ATP and 500 uM diC8-PtdInsP. Reactions were incubated at room temperature for 2 hours followed by addition of 25 uL of stop solution. After a 40-minute incubation at room temperature, 50 uL of Promega detection mix was added followed by incubation for 1 hour at room temperature. Plates were then read on Envision plate reader in luminescence mode. Data was converted to % inhibition using the following equation below:
# (§2) [formula] where S is the sample luminescence, Pos is a positive control without added PI3K, Neg is the negative control without added compound. Data was then plotted as % inhibition vs compound concentration. Data fit to 4 parameter logistic equation to determine IC50 values: […]
# (§3) Certain compounds provided herein were tested in PI3-Kinase Promega Assay using procedures as described above to determine IC50 values for α, β, δ and/or γ isoforms.
# T1 sequence (P42336 whole entry): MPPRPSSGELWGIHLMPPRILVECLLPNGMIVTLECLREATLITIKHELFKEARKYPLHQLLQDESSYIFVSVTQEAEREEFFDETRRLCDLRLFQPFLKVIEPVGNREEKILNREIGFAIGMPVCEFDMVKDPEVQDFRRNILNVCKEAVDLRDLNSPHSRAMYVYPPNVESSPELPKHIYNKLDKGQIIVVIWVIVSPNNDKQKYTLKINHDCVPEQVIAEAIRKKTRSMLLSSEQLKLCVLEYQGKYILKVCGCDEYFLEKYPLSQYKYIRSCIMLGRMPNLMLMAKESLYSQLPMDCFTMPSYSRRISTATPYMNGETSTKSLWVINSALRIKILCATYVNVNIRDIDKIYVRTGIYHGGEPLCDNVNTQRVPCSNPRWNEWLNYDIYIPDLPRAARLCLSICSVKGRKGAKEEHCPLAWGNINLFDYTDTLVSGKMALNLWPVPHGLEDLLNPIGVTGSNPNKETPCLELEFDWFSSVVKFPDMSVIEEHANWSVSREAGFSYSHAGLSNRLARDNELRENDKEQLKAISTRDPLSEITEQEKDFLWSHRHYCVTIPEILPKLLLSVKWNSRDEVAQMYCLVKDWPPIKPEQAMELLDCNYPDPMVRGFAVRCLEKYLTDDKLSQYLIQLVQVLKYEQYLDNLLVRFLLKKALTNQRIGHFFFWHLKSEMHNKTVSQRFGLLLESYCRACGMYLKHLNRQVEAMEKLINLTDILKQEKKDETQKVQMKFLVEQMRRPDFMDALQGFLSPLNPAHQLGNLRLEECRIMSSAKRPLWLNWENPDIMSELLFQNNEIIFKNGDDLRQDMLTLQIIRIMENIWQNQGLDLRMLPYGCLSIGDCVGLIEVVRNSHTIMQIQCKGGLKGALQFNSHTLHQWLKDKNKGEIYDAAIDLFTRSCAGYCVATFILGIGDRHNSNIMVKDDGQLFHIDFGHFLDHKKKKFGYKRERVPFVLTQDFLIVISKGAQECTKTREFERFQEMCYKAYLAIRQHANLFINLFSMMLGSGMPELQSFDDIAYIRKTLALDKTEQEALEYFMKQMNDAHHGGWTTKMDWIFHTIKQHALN
# T1 sequence (P27986 whole entry partner): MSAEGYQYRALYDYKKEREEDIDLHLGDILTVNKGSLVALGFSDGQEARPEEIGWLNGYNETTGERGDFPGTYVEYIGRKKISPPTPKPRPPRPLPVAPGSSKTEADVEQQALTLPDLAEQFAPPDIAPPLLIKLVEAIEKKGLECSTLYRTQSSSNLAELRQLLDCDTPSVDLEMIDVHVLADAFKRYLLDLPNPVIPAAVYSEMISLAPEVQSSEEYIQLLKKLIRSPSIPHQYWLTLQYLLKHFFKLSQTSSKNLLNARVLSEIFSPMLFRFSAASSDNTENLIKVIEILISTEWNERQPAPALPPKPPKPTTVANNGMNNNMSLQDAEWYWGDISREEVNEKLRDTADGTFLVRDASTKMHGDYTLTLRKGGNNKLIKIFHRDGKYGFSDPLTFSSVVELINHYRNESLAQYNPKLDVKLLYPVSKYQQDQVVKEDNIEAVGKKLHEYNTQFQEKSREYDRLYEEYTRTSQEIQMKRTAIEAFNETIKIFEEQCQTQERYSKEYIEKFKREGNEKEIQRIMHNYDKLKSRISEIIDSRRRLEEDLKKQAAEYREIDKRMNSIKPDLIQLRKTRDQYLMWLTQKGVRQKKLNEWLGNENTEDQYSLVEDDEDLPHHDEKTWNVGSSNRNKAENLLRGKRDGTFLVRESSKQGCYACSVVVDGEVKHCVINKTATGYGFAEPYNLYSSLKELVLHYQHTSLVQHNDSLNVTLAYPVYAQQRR
row,IC50 [nM],Structure (SMILES)
1,> 10000,COc1cccc2cc([C@H](C)NC(=O)c3c(N)nn4cccnc34)n(-c3ccccc3)c(=O)c12 [Compound 270]
2,1000 to 10000,C[C@H](NC(=O)c1c(N)nn2cccnc12)c1cc2cccc(C#CCNC(=O)[C@H]3CCC(=O)O3)c2c(=O)n1-c1ccccc1 [Compound 158]
3,1000 to 10000,C[C@H](NC(=O)c1cncc2cccnc12)c1cc2cccc(Cl)c2c(=O)n1-c1ccc(F)cc1 [Compound 65]
4,> 10000,C[C@H](NC(=O)c1nc(-c2ccc(S(C)(=O)=O)cc2)cnc1N)c1cc2cccc(Cl)c2c(=O)n1-c1ccccc1 [Compound 90]
5,1000 to 10000,C[C@H](NC(=O)c1c(N)nn2cccnc12)c1cc2cccc(Cl)c2c(=O)n1-c1ccc(F)c(F)c1 [Compound 75]
6,> 10000,CC(C)Oc1ccc(-c2cnc(N)c(C(=O)N[C@@H](C)c3cc4cccc(Cl)c4c(=O)n3-c3ccccc3)n2)cc1Cl [Compound 88]
7,100 to 1000,COc1ccc(-c2cnc(N)c(C(=O)N[C@@H](C)c3cc4cccc(Cl)c4c(=O)n3-c3ccccc3)n2)cc1NS(C)(=O)=O [Compound 101]

# Target: T2, PI3K β (Homo sapiens, UniProt P42338)
# T2 construct: purchased Millipore
# T2 sequence (P42338 whole entry): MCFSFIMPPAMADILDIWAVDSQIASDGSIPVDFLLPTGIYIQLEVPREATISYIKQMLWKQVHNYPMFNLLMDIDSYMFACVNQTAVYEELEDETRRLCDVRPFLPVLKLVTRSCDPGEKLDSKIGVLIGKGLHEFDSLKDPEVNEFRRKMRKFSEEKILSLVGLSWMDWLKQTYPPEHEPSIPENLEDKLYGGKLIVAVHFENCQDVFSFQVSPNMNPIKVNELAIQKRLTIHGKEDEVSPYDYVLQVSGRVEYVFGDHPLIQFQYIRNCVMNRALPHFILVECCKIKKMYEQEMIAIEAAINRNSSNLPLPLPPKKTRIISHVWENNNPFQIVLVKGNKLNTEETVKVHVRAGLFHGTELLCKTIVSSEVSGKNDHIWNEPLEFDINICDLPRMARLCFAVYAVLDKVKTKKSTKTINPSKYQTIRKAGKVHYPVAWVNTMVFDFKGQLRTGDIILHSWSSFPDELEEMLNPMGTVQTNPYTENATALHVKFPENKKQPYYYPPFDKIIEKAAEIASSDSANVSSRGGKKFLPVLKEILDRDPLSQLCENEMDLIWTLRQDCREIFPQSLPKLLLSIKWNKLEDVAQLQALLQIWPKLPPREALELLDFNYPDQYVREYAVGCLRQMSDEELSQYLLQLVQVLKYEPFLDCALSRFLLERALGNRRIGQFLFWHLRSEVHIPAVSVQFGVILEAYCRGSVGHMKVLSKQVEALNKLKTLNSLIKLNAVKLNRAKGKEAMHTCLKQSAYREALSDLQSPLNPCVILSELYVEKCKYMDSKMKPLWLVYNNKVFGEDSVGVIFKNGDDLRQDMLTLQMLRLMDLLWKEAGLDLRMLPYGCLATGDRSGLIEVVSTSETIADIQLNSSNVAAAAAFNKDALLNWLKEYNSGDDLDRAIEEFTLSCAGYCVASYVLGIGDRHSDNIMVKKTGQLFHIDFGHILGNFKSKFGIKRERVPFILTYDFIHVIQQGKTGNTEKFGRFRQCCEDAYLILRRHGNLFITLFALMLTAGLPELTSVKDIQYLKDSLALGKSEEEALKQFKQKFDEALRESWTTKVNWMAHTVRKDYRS
# T2 sequence (P27986 whole entry partner): as the sequence (P27986 whole entry partner) above
# Assay: PI3-Kinase Promega ADP-Glo Max assay
# Format: biochemical
# Conditions: 40 nM kinase, 3 mM ATP, 500 uM diC8-PtdInsP
# Protocol: as §1, §2, §3
row,IC50 [nM],Structure (SMILES)
1,> 10000,COc1cccc2cc([C@H](C)NC(=O)c3c(N)nn4cccnc34)n(-c3ccccc3)c(=O)c12 [Compound 270]
2,1000 to 10000,C[C@H](NC(=O)c1c(N)nn2cccnc12)c1cc2cccc(C#CCNC(=O)[C@H]3CCC(=O)O3)c2c(=O)n1-c1ccccc1 [Compound 158]
3,1000 to 10000,C[C@H](NC(=O)c1cncc2cccnc12)c1cc2cccc(Cl)c2c(=O)n1-c1ccc(F)cc1 [Compound 65]
4,> 10000,C[C@H](NC(=O)c1nc(-c2ccc(S(C)(=O)=O)cc2)cnc1N)c1cc2cccc(Cl)c2c(=O)n1-c1ccccc1 [Compound 90]
5,1000 to 10000,C[C@H](NC(=O)c1c(N)nn2cccnc12)c1cc2cccc(Cl)c2c(=O)n1-c1ccc(F)c(F)c1 [Compound 75]
6,> 10000,CC(C)Oc1ccc(-c2cnc(N)c(C(=O)N[C@@H](C)c3cc4cccc(Cl)c4c(=O)n3-c3ccccc3)n2)cc1Cl [Compound 88]
7,100 to 1000,COc1ccc(-c2cnc(N)c(C(=O)N[C@@H](C)c3cc4cccc(Cl)c4c(=O)n3-c3ccccc3)n2)cc1NS(C)(=O)=O [Compound 101]

# Target: T3, PI3K δ (Homo sapiens, UniProt O00329)
# T3 construct: purchased Millipore
# Assay: PI3-Kinase Promega ADP-Glo Max assay
# Format: biochemical
# Conditions: 20 nM kinase, 3 mM ATP, 500 uM diC8-PtdInsP
# Protocol: as §1, §2, §3
row,IC50 [nM],Structure (SMILES)
1,1000 to 10000,COc1cccc2cc([C@H](C)NC(=O)c3c(N)nn4cccnc34)n(-c3ccccc3)c(=O)c12 [Compound 270]
2,1000 to 10000,C[C@H](NC(=O)c1c(N)nn2cccnc12)c1cc2cccc(C#CCNC(=O)[C@H]3CCC(=O)O3)c2c(=O)n1-c1ccccc1 [Compound 158]
3,1000 to 10000,C[C@H](NC(=O)c1cncc2cccnc12)c1cc2cccc(Cl)c2c(=O)n1-c1ccc(F)cc1 [Compound 65]
4,> 10000,C[C@H](NC(=O)c1nc(-c2ccc(S(C)(=O)=O)cc2)cnc1N)c1cc2cccc(Cl)c2c(=O)n1-c1ccccc1 [Compound 90]
5,1000 to 10000,C[C@H](NC(=O)c1c(N)nn2cccnc12)c1cc2cccc(Cl)c2c(=O)n1-c1ccc(F)c(F)c1 [Compound 75]
6,> 10000,CC(C)Oc1ccc(-c2cnc(N)c(C(=O)N[C@@H](C)c3cc4cccc(Cl)c4c(=O)n3-c3ccccc3)n2)cc1Cl [Compound 88]
7,1000 to 10000,COc1ccc(-c2cnc(N)c(C(=O)N[C@@H](C)c3cc4cccc(Cl)c4c(=O)n3-c3ccccc3)n2)cc1NS(C)(=O)=O [Compound 101]

# Target: T4, PI3K γ (Homo sapiens, UniProt P48736)
# T4 construct: purchased Millipore
# Assay: PI3-Kinase Promega ADP-Glo Max assay
# Format: biochemical
# Conditions: 40 nM kinase, 3 mM ATP, 500 uM diC8-PtdInsP
# Protocol: Promega ADP-Glo Max assay kit (Cat. No. V7002) was utilized to determine IC50 values for α, β, δ and γ isoforms of human Class I PI3 kinases (Millipore). […] Reactions were incubated at room temperature for 2 hours followed by addition of 25 uL of stop solution. After a 40-minute incubation at room temperature, 50 uL of Promega detection mix was added followed by incubation for 1 hour at room temperature. Plates were then read on Envision plate reader in luminescence mode. Data was converted to % inhibition using the following equation below:
# [formula] where S is the sample luminescence, Pos is a positive control without added PI3K, Neg is the negative control without added compound. Data was then plotted as % inhibition vs compound concentration.
# as §3
row,IC50 [nM],Structure (SMILES)
1,1000 to 10000,COc1cccc2cc([C@H](C)NC(=O)c3c(N)nn4cccnc34)n(-c3ccccc3)c(=O)c12 [Compound 270]
2,< 100,C[C@H](NC(=O)c1c(N)nn2cccnc12)c1cc2cccc(C#CCNC(=O)[C@H]3CCC(=O)O3)c2c(=O)n1-c1ccccc1 [Compound 158]
3,1000 to 10000,C[C@H](NC(=O)c1cncc2cccnc12)c1cc2cccc(Cl)c2c(=O)n1-c1ccc(F)cc1 [Compound 65]
4,1000 to 10000,C[C@H](NC(=O)c1nc(-c2ccc(S(C)(=O)=O)cc2)cnc1N)c1cc2cccc(Cl)c2c(=O)n1-c1ccccc1 [Compound 90]
5,< 100,C[C@H](NC(=O)c1c(N)nn2cccnc12)c1cc2cccc(Cl)c2c(=O)n1-c1ccc(F)c(F)c1 [Compound 75]
6,1000 to 10000,CC(C)Oc1ccc(-c2cnc(N)c(C(=O)N[C@@H](C)c3cc4cccc(Cl)c4c(=O)n3-c3ccccc3)n2)cc1Cl [Compound 88]
7,< 100,COc1ccc(-c2cnc(N)c(C(=O)N[C@@H](C)c3cc4cccc(Cl)c4c(=O)n3-c3ccccc3)n2)cc1NS(C)(=O)=O [Compound 101]

# Target: T5, Raw264.7 p110 γ (Mus musculus, UniProt Q9JHG7)
# T5 construct: reduction of phospho-AKT in stimulated RAW 264.7 cells; endogenous in cells; host or cells: RAW264.7 macrophages
# T5 sequence (Q9JHG7 whole entry): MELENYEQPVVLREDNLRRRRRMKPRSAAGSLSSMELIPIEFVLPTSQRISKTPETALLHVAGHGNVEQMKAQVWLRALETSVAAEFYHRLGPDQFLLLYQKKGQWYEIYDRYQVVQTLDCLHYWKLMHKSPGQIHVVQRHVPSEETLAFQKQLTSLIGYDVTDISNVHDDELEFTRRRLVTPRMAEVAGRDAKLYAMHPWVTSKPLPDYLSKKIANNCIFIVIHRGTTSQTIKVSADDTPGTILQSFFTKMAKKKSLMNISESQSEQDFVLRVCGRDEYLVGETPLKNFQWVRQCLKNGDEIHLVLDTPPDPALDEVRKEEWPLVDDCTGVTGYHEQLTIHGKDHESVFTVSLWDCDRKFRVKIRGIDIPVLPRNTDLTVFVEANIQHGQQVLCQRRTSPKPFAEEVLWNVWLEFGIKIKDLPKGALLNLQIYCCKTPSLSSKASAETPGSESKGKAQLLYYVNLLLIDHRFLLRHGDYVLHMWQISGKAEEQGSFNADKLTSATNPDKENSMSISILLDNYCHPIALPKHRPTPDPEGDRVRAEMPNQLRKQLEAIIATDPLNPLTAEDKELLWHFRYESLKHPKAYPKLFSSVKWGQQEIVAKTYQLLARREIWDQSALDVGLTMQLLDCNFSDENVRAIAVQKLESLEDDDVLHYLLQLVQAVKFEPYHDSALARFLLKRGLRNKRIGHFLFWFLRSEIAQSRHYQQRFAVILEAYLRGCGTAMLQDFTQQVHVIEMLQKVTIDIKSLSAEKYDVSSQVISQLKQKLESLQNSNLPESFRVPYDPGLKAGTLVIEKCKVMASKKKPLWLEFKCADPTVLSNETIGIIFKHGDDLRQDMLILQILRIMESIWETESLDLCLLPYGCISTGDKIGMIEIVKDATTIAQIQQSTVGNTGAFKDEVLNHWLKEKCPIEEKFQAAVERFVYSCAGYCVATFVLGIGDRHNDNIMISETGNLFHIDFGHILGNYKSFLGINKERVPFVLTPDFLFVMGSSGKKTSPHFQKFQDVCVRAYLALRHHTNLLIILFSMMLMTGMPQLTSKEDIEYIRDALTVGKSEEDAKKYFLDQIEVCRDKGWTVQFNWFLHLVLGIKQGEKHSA
# Assay: Raw264.7 p110 γ cellular assay (phospho-AKT)
# Format: cell-based
# Conditions: serum-starved RAW264.7 cells stimulated with C5a
# Description: (b) PI3K-γ Selective Assay
# Briefly, serum-starved PAW264.7 cells are stimulated with a known GPCR agonist C5a. […] Cells can be treated with test compounds prior to, simultaneously with, or subsequent to the stimulation by C5a. RAW 264.7 cells respond to the complement component fragment C5a through activation of the C5a receptor, and the C5a receptor activates macrophages and induces cell migration.
row,IC50 [nM],Structure (SMILES)
1,100 to 1000,COc1cccc2cc([C@H](C)NC(=O)c3c(N)nn4cccnc34)n(-c3ccccc3)c(=O)c12 [Compound 270]
2,< 100,C[C@H](NC(=O)c1c(N)nn2cccnc12)c1cc2cccc(C#CCNC(=O)[C@H]3CCC(=O)O3)c2c(=O)n1-c1ccccc1 [Compound 158]
3,< 100,C[C@H](NC(=O)c1cncc2cccnc12)c1cc2cccc(Cl)c2c(=O)n1-c1ccc(F)cc1 [Compound 65]
4,100 to 1000,C[C@H](NC(=O)c1nc(-c2ccc(S(C)(=O)=O)cc2)cnc1N)c1cc2cccc(Cl)c2c(=O)n1-c1ccccc1 [Compound 90]
5,< 100,C[C@H](NC(=O)c1c(N)nn2cccnc12)c1cc2cccc(Cl)c2c(=O)n1-c1ccc(F)c(F)c1 [Compound 75]
6,1000 to 10000,CC(C)Oc1ccc(-c2cnc(N)c(C(=O)N[C@@H](C)c3cc4cccc(Cl)c4c(=O)n3-c3ccccc3)n2)cc1Cl [Compound 88]
7,< 100,COc1ccc(-c2cnc(N)c(C(=O)N[C@@H](C)c3cc4cccc(Cl)c4c(=O)n3-c3ccccc3)n2)cc1NS(C)(=O)=O [Compound 101]

# Target: RAJI p110 δ (Homo sapiens, UniProt O00329)
# Sequence (O00329 whole entry): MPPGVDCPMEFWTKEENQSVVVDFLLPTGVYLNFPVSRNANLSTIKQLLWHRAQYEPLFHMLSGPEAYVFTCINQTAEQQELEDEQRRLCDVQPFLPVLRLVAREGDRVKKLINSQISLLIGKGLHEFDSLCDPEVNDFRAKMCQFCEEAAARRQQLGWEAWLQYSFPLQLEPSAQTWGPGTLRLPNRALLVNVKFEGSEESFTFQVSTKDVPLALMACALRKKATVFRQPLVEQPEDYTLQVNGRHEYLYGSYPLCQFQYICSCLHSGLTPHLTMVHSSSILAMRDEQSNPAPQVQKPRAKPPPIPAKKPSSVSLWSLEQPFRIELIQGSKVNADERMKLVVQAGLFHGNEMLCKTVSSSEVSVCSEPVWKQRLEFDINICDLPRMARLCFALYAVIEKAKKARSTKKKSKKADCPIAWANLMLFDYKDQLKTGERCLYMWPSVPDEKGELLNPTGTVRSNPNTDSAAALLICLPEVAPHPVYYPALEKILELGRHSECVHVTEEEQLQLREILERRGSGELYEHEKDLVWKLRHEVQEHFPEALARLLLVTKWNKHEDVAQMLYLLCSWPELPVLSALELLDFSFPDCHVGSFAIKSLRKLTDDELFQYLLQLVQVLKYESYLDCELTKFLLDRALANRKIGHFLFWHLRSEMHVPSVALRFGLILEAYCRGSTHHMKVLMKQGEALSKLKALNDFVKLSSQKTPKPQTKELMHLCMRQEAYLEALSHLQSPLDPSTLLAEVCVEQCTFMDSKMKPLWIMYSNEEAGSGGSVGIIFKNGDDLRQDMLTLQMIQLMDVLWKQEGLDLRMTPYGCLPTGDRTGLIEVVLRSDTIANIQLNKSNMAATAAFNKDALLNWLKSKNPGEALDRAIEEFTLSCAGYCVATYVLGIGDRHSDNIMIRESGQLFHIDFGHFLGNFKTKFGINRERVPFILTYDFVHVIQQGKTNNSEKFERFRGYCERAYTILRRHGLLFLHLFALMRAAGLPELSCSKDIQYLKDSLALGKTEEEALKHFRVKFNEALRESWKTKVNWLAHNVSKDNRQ
# Sequence (P27986 whole entry partner): as the sequence (P27986 whole entry partner) above
# Assay: RAJI p110 δ cellular assay (phospho-AKT);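 note: potency based on lowered phosphorylated AKT in RAJI cells, as a readout of PI3K-δ dependent B-cell receptor signaling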
# Conditions: not given
row,IC50 [nM],Structure (SMILES)
1,100 to 1000,COc1cccc2cc([C@H](C)NC(=O)c3c(N)nn4cccnc34)n(-c3ccccc3)c(=O)c12 [Compound 270]
2,< 100,C[C@H](NC(=O)c1c(N)nn2cccnc12)c1cc2cccc(C#CCNC(=O)[C@H]3CCC(=O)O3)c2c(=O)n1-c1ccccc1 [Compound 158]
3,< 100,C[C@H](NC(=O)c1cncc2cccnc12)c1cc2cccc(Cl)c2c(=O)n1-c1ccc(F)cc1 [Compound 65]
4,1000 to 10000,C[C@H](NC(=O)c1nc(-c2ccc(S(C)(=O)=O)cc2)cnc1N)c1cc2cccc(Cl)c2c(=O)n1-c1ccccc1 [Compound 90]
5,100 to 1000,C[C@H](NC(=O)c1c(N)nn2cccnc12)c1cc2cccc(Cl)c2c(=O)n1-c1ccc(F)c(F)c1 [Compound 75]
6,> 10000,CC(C)Oc1ccc(-c2cnc(N)c(C(=O)N[C@@H](C)c3cc4cccc(Cl)c4c(=O)n3-c3ccccc3)n2)cc1Cl [Compound 88]
7,< 100,COc1ccc(-c2cnc(N)c(C(=O)N[C@@H](C)c3cc4cccc(Cl)c4c(=O)n3-c3ccccc3)n2)cc1NS(C)(=O)=O [Compound 101]
